From ChEMBL document CHEMBL5634071, “Fluorine in anti-HIV drugs approved by FDA from 1981 to 2023” (Eur J Med Chem, 2023)

Tests used:
[1] = Binding affinity to HIV protease assessed as inhibition constant; design: species or system Human immunodeficiency virus
[2] = test system: Human immunodeficiency virus; assay: Antiviral activity against HIV; format: functional, organism-based; conditions: Human immunodeficiency virus 1
[3] = test system: Human immunodeficiency virus 1; assay: Antiviral activity against HIV-1 IIIB infected in human H9 cells; format: functional, organism-based; conditions: Human immunodeficiency virus 1, IIIB
[4] = test system: Human immunodeficiency virus 1; assay: Antiviral activity against HIV-1 infected in human MT4 cells assessed as reduction in virus induced cytopathic effect; format: functional, organism-based; conditions: Human immunodeficiency virus 1, MT4
[5] = test system: Human immunodeficiency virus 1; assay: Antiviral activity against VSV-G pseudotyped HIV-1 infected in HEK293T cells assessed as inhibition of early stage viral replication preincubated with cells for 30 mins followed by viral infection for 3 hrs and measured 48 hrs after media replacement with compound by luciferase assay; format: functional, organism-based; conditions: Human immunodeficiency virus 1, HEK-293T
[6] = test system: Human immunodeficiency virus 1; assay: Antiviral activity HIV-1 infected in HEK293T cells assessed as inhibition of late stage viral replication; format: functional, organism-based; conditions: Human immunodeficiency virus 1, HEK-293T
[7] = Cytotoxicity against HEK293T cells incubated for 72 hrs by MTT assay; format: toxicity, cell-based, HEK-293T; conditions: human
[8] = test system: Human immunodeficiency virus 1; assay: Antiviral activity against HIV-1 infected in human PBMC; format: functional, organism-based; conditions: Human immunodeficiency virus 1, PBMC
[9] = molecular target: Human immunodeficiency virus type 1 Gag protein (Human immunodeficiency virus 1, UniProt Q77YG1); assay: Binding affinity to HIV1 Gag assessed as dissociation constant
[10] = Metabolic stability in rhesus monkey hepatocytes assessed as half-life; format: ADME, cell-based, Macaca mulatta, Hepatocyte
[11] = test system: Human immunodeficiency virus 1; assay: Antiviral activity against HIV-1 LAV infected in human CEM-SS cells assessed as reduction in virus-induced cytopathic effect by XTT assay; format: functional, organism-based; conditions: Human immunodeficiency virus 1, LAV
[12] = test system: Human immunodeficiency virus 1; assay: Antiviral activity against HIV-1 SK-1 infected in human CEM-SS cells assessed as reduction in virus-induced cytopathic effect by XTT assay; format: functional, organism-based; conditions: Human immunodeficiency virus 1, SK-1, CEM-SS
[13] = test system: Human immunodeficiency virus 1; assay: Antiviral activity against HIV-1 214 infected in human CEM-SS cells assessed as reduction in virus-induced cytopathic effect by XTT assay; format: functional, organism-based; conditions: Human immunodeficiency virus 1, 214, CEM-SS
[14] = test system: Human immunodeficiency virus 1; assay: Antiviral activity against HIV-1 205 infected in human CEM-SS cells assessed as reduction in virus-induced cytopathic effect by XTT assay; format: functional, organism-based; conditions: Human immunodeficiency virus 1, 205, CEM-SS
[15] = test system: Human immunodeficiency virus 1; assay: Antiviral activity against HIV-1 G infected in human CEM-SS cells assessed as reduction in virus-induced cytopathic effect by XTT assay; format: functional, organism-based; conditions: Human immunodeficiency virus 1, G
[16] = test system: Human immunodeficiency virus 1; assay: Antiviral activity against HIV-1 TP-1 infected in human CEM-SS cells assessed as reduction in virus-induced cytopathic effect by XTT assay; format: functional, organism-based; conditions: Human immunodeficiency virus 1, TP-1, CEM-SS
[17] = test system: Human immunodeficiency virus 1; assay: Antiviral activity against HIV-1 KELL infected in human CEM-SS cells assessed as reduction in virus-induced cytopathic effect by XTT assay; format: functional, organism-based; conditions: Human immunodeficiency virus 1, KELL
[18] = test system: Human immunodeficiency virus 1; assay: Antiviral activity against HIV-1 PM16 infected in human CEM-SS cells assessed as reduction in virus-induced cytopathic effect by XTT assay; format: functional, organism-based; conditions: Human immunodeficiency virus 1, PM16, CEM-SS
[19] = Inhibition of HIV integrase strand transfer activity; design: species or system Human immunodeficiency virus
[20] = Inhibition of HIV-1 integrase by multiple well plate integration assay; design: species or system Human immunodeficiency virus
[21] = test system: Human immunodeficiency virus 1; assay: Antiviral activity against HIV-1 IIIB infected in human MT4 cells incubated for 7 days by ELISA; format: functional, organism-based; conditions: Human immunodeficiency virus 1, IIIB, MT4, 168 h
[22] = molecular target: Human immunodeficiency virus type 1 protease (Human immunodeficiency virus 1, UniProt Q72874); assay: Inhibition of HIV-1 protease expressed in Escherichia coli incubated for 90 mins by fluorescence based analysis
[23] = test system: Human immunodeficiency virus 1; assay: Antiviral activity against HIV-1 infected in lymphoblastoid cell (unknown origin); conditions: Human immunodeficiency virus 1, Lymphoblastoid cell
[24] = test system: Human immunodeficiency virus 1; assay: Antiviral activity against HIV-1 infected in human HeLa-MAGI-CCR5 cells; conditions: Human immunodeficiency virus 1, HeLa-MAGI-CCR5
[25] = test system: Human immunodeficiency virus 1; assay: Antiviral activity against HIV-1 infected in PBMC (unknown origin); conditions: Human immunodeficiency virus 1, PBMC
[26] = Cytotoxicity against lymphoblastoid cell (unknown origin); conditions: lymphoblastoid cells
[27] = Cytotoxicity against human HeLa-MAGI-CCR5 cells
[28] = Cytotoxicity against PBMC (unknown origin)
[29] = test system: Human immunodeficiency virus 1; assay: Antiviral activity against HIV-1 LAV infected in human CEM cells; format: functional, organism-based; conditions: Human immunodeficiency virus 1, LAV, CCRF-CEM
[30] = Cytotoxicity against human CEM cells measured after 6 days; conditions: CEM cells (CCRF-CEM)
[31] = Oral bioavailability in rat; conditions: in vivo
[32] = Oral bioavailability in mouse; conditions: in vivo
[33] = Oral bioavailability in cynomolgus monkey; conditions: in vivo

CCC[C@@]1(CCc2ccccc2)CC(O)=C([C@H](CC)c2cccc(NS(=O)(=O)c3ccc(C(F)(F)F)cn3)c2)C(=O)O1
Ki [1]: 8 nM | IC50 [2]: 30 nM | IC50 [3]: 30 nM | IC90 [3]: 100 nM

Cc1c(Sc2ccccc2)n(COCCO)c(=O)[nH]c1=O [HEPT]
IC50 [4]: 7000 nM

CC(C)(C#Cc1ccc(-c2ccc(Cl)c3c(NS(C)(=O)=O)nn(CC(F)(F)F)c23)c([C@H](Cc2cc(F)cc(F)c2)NC(=O)Cn2nc(C(F)(F)F)c3c2C(F)(F)[C@@H]2C[C@H]32)n1)S(C)(=O)=O
IC50 [5]: 0.055 nM | IC50 [6]: 0.314 nM | CC50 at 72 h [7]: > 50000 nM | IC50 [8]: 0.05 nM | Kd [9]: 1.1 nM | half-life [10]: 202 h

O=S1(c2ccccc2)=NC(=S)Nc2ccccc21 (centres undefined)
IC50 [11]: 950 nM | IC50 [12]: 950 nM | IC50 [13]: 950 nM | IC50 [14]: 950 nM | IC50 [15]: 950 nM | IC50 [16]: 950 nM | IC50 [17]: 950 nM | IC50 [18]: 950 nM

O=C(NCc1c(F)cc(F)cc1F)c1cn2c(c(O)c1=O)C(=O)N1[C@H]3CC[C@H](C3)O[C@@H]1C2 [BICTEGRAVIR]
IC50 [19]: 2.4 nM

O=C(O)/C(O)=C/C(=O)C1C=Nc2ccc(Cl)cc21 (centres undefined)
IC50 [20]: 2300 nM

CCC(Cc1ccccc1)c1cc(O)c(C(CC)c2ccccc2)c(=O)o1 (centres undefined)
IC50 [21]: 3000 nM

CCCC(CCc1ccccc1)c1cc(O)c(C(CC)c2ccccc2)c(=O)o1 (centres undefined)
Ki [22]: 35 nM

Nc1nc(=O)n([C@@H]2CS[C@H](CO)O2)cc1F [EMTRICITABINE]
IC50 [23]: 1 nM | IC50 [24]: 1 nM | IC50 [25]: 1 nM | CC50 [26]: > 200000 nM | CC50 [27]: > 200000 nM | CC50 [28]: > 200000 nM | IC50 [29]: 9 nM | CC50 at 144 h [30]: > 100000 nM | bioavailability [31]: ~58% | bioavailability [32]: ~58% | bioavailability [33]: ~58%
